{"source": "ChEMBL document CHEMBL4373741", "about": "“Direct and straightforward access to substituted alkyl selenols as novel carbonic anhydrase inhibitors” (Eur J Med Chem, 2020)", "data": [{"target": "Carbonic anhydrase 7 (Homo sapiens, UniProt P43166)", "sequence (P43166 whole entry)": "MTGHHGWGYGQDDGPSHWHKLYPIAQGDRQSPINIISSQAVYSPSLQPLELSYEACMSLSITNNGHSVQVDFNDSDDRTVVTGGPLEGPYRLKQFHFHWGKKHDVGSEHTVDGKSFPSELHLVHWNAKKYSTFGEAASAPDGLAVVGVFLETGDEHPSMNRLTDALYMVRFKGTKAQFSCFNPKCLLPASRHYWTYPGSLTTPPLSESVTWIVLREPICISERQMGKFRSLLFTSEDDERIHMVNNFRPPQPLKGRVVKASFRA", "assay": "Inhibition of recombinant human CA7 incubated for 15 mins by phenol red dye based stopped flow CO2 hydration assay", "units": {"Ki": "µM"}, "values": [{"smiles": "C=CCOCC(S)C[SeH]", "note": "(stereo not given)", "Ki": "> 100"}, {"smiles": "CC[C@H](C)[C@@H](C[SeH])NS(=O)(=O)c1ccc(C)cc1", "Ki": "> 100"}, {"smiles": "O[C@H](CCl)C[SeH]", "Ki": "> 100"}, {"smiles": "O[C@@H](CCl)C[SeH]", "Ki": "> 100"}, {"smiles": "COc1ccc(COCC(O)C[SeH])cc1", "note": "(stereo not given)", "Ki": "> 100"}]}, {"target": "Carbonic anhydrase 9 (Homo sapiens, UniProt Q16790)", "assay": "Inhibition of recombinant human CA9 incubated for 15 mins by phenol red dye based stopped flow CO2 hydration assay", "units": {"Ki": "µM"}, "values": [{"smiles": "C=CCOCC(O)C[SeH]", "note": "(stereo not given)", "Ki": "> 100"}, {"smiles": "C=CCOCC(S)C[SeH]", "note": "(stereo not given)", "Ki": 38.6}, {"smiles": "CC[C@H](C)[C@@H](C[SeH])NS(=O)(=O)c1ccc(C)cc1", "Ki": "> 100"}, {"smiles": "Cc1ccc(S(=O)(=O)N[C@H](C[SeH])C(C)C)cc1", "Ki": 2.1}, {"smiles": "O[C@H](CCl)C[SeH]", "Ki": "> 100"}, {"smiles": "O[C@@H](CCl)C[SeH]", "Ki": 60}, {"smiles": "OC(C[SeH])COCc1ccccc1", "note": "(stereo not given)", "Ki": 58.7}, {"smiles": "SC(C[SeH])COCc1ccccc1", "note": "(stereo not given)", "Ki": 6.6}, {"smiles": "CC(C)[C@@H](C[SeH])NC(=O)OC(C)(C)C", "Ki": "> 100"}, {"smiles": "COc1ccc(COCC(O)C[SeH])cc1", "note": "(stereo not given)", "Ki": "> 100"}]}]}
